In patent publication US12466863B2, “Nuclear reprogramming factor and induced pluripotent stem cells” (Kyoto University, priority 2005, dated 2025):

What was measured:
[1] = system: MEFs derived from the Fbx15^βgeo/βgeo mouse; assay: Effect of cytokine (bFGF- or SCF-producing STO feeder cells) on iPS cell establishment; format: cell-based; conditions: no colony on normal STO cells
Description: An effect of cytokine on iPS cell establishment was investigated. Expression vector (pMX retroviral vector) for basic fibroblast growth factor (bFGF) or stem cell factor (SCF) was transduced into feeder cells (STO cells) to establish cells permanently expressing the cytokines. […] As a result, the number of formed colonies increased 20 times or higher on the STO cells producing bFGF (FIG. 11) or SCF (data not shown), as compared with the culture on normal STO cells.

[2] = system: MEFs with Nanog-EGFP-IRES-Puro; assay: GFP-positive colonies from Nanog-EGFP-IRES-Puro MEFs after 4-factor transduction and puromycin selection; format: cell-based, mouse; conditions: PD98059 25 μM continuously from the next day of retroviral transfection; 4 factors; 8% without PD98059
Description: Studies were made as to whether iPS cells could be established with a reporter other than Fbx15-βgeo. Escherichia coli artificial chromosome (BAC) containing the Nanog gene in the center was isolated, and then the GFP gene and the puromycin resistance gene were knocked in by recombination in E. coli (FIG. 12A). Subsequently, the above modified BAC was introduced into ES cells to confirm that the cells became GFP-positive in an undifferentiated state specific manner (data not shown). Then, these ES cells were transplanted in mouse blastocysts to create transgenic mice via chimeric mice. In these mice, GFP-positive cells were specifically observed in inner cell masses of the blastocysts or gonads of embryos at 13.5 days after fertilization (FIG. 12B). The gonads were removed from the embryos at 13.5 days after fertilization (hybrid of DBA, 129, and C57BL/6 mice), and MEFs were isolated. The isolated MEFs were confirmed to be GFP-negative (FIG. 13) by flow cytometry. These MEFs were retrovirally transduced with the 4 factors and subjected to puromycin selection, and as a result, a plural, number of resistant colonies were obtained. Only about 10 to 20% of the colonies were GFP-positive. When the GFP-positive colonies were passaged, they gave morphology (FIG. 14) and proliferation (FIG. 15) similar to those of ES cells. […]

Compound | iPS cell colony formation with the 3 factors other than c-Myc [1] | percentage of GFP-positive colonies [2]
SCF: cytokine produced by STO feeder cells transduced with pMX expression vector | colony formation was observed | –
COc1cccc(-c2cc(=O)c3ccccc3o2)c1N [PD98059] | – | 45%
bFGF: cytokine produced by STO feeder cells transduced with pMX expression vector | colony formation was observed | –
